Data on three compounds can be found in US20160376240A1, “6 Phenyl or 6 Pyridin 3 YL Indazole Derivatives and Methods of Use” (ABBVIE INC., priority 2014, published 2016).

The target of one assay is T1, TrkB (Homo sapiens, UniProt Q16620).
T1 construct: purchased Invitrogen PV3616
In words: TrkB kinase inhibition, HTRF assay. The settings on record: LCK peptide substrate, assay ATP concentration targeted 5 μM. The format is biochemical. As to the method: (§1) TrkA, TrkB, and TrkC enzymes were obtained from Invitrogen (as catalog numbers PV3144, PV3616, and PV3617, respectively). The ability of a compound to inhibit the enzymatic activity of the TrkA, TrkB, and TrkC enzymes was determined in separate assays. Enzyme activity was measured in an HTRF® (homogeneous time resolved fluorescence) assay, which detects enzymatic phosphorylation of a biotinylated synthetic peptide substrate (an LCK peptide analog, biotin-ahx-GAEEEIYAAFFA, from Genemed Synthesis). Phosphorylation is assessed by HTRF® in the presence of an anti-phosphotyrosine antibody conjugated to Eu^3+ cryptate (Cisbio) as donor fluorophore, and streptavidin conjugated to allophycocyanin (ProZyme) as acceptor fluorophore. The HTRF® signal was detected at two different wavelengths (620 nm and 665 nm) which were used to calculate the fluorescence ratio.
(§2) Each enzyme was titrated to a concentration optimized to ensure accurate measurement of the initial reaction rate. To allow the Trk enzymes to undergo activation and auto-phosphorylation, a 20 minute pre-incubation with ATP was carried out (at twice the final targeted enzyme and ATP concentration) prior to addition of test compound and the peptide substrate.
(§3) TrkA in vitro assays were performed by pre-incubating TrkA (2-10 nM) with ATP (200 μM) for 20 minutes at ambient temperature in 50 mM HEPES pH 7.4, 10 mM MgCl2, 2 mM MnCl2, 100 μM Na3VO4, 1 mM dithiothreitol, 0.01% BSA (bovine serum albumin). Then, to the activated Trk enzyme mixture was added the test compound in 2% dimethyl sulfoxide. After 10 minutes, the peptide substrate (125 nM) was added. After 1 hour, enzyme reactions were terminated by addition of equal reaction volumes of detection/stop reagent (containing 0.2 μg/mL anti-phosphotyrosine monoclonal antibody labeled with europium from Cisbio (catalog# PT66-K), and 4 μg/mL PhycoLink® Streptavidin-Allophycocyanin conjugate from ProZyme (catalog# PJ25S) in 60 mM EDTA in 40 mM HEPES pH 7.4, 480 mM KF, 0.01% Tween® 20 and 0.1% BSA bovine serum albumin) Reaction plates were stored at 4° C. overnight before reading the fluorescence ratio signal on a PerkinElmer EnVision™ fluorescence detector. Individual reaction wells were stopped at time points to obtain reaction rates. The test inhibitor compounds were assayed in duplicate, at half-log serial dilutions over a range of concentrations (e.g. starting at 50 μM or 5 μM as the high compound concentration). The percent Trk enzyme inhibition was calculated from the initial rates of the inhibited reactions relative to the uninhibited control. IC50 values were calculated by fitting the inhibition percent to the concentration of inhibitor [I] in the assay in equation 1 below, to solve for the IC50.
(§4) Inhibition %=100[I]/([I]+[IC50]) equation 1
(§5) The TrkB and TrkC in vitro assays were performed as described above, except that for these enzymes the assay ATP concentration targeted was 5 μM.
For orientation: In TR-FRET formats the signal depends on donor and acceptor labels being close together.

A further assay deals with T2, TrkA (Homo sapiens, UniProt P04629).
T2 construct: purchased Invitrogen PV3144
T2 sequence (P04629 33-796): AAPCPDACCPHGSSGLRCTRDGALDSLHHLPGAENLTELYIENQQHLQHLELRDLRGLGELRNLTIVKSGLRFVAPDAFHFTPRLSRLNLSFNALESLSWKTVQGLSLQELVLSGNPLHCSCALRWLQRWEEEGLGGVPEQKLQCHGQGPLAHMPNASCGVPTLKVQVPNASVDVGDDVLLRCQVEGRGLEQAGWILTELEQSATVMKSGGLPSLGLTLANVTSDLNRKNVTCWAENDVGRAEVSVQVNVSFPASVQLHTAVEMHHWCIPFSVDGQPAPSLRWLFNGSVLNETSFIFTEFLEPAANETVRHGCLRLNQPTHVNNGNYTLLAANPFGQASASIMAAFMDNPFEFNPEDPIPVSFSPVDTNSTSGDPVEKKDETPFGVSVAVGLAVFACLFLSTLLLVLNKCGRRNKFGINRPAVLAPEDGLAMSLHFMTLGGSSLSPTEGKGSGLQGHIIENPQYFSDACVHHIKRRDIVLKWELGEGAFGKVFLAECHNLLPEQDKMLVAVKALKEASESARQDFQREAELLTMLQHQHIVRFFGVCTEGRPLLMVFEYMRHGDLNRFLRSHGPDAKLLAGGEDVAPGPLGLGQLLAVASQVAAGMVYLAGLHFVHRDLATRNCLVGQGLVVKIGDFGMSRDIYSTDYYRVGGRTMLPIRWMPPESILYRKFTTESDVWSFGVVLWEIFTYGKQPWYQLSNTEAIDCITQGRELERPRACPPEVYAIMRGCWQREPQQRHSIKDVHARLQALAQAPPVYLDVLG
Put plainly: TrkA kinase inhibition, HTRF assay. In kind it is biochemical. The settings on record: LCK peptide substrate 125 nM, TrkA 2-10 nM pre-incubated with ATP 200 μM. The gist of the method:
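TrkA (2-10 nM) preactivated 20 min with 200 μM ATP in HEPES pH 7.4 with Mg2+/Mn2+, then compound for 10 min, then 125 nM biotinylated LCK-peptide for 1 h at ambient temperature. HTRF 665/620 ratio read; IC50 fitted from initial-rate percent inhibition.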

Assay [1] deals with rat model of mono-iodoacetic acid induced osteoarthritis pain. Put plainly: Osteoarthritis pain model, hind limb grip force in MIA-treated rats. In kind it is in vivo. The following applies: mean percent effect, ***p<0.001 vs vehicle-treated animals. On the procedure:
Members of the TrkA inhibitors described above were tested and found effective in reducing osteoarthritis pain. The compounds tested were assessed in an in vivo model well known to those skilled in the art, the rat model of mono-iodoacetic acid induced osteoarthritis pain. A general review of various models of pain can be found in Joshi and Honore, Expert Opinion in Drug Discovery (2004) 1, pp. 323-334, and in the book ‘Drug Discovery and Evaluation, 2nd edition (H. Gerhard Vogel, editor; Springer-Verlag, New York, 2002; pp. 702-706).
Pain behavior was assessed by measurement of hind limb grip force (GF) in adult osteoarthritic rats. Male Sprague Dawley rats, generally weighing 125-150 g, were injected in the unilateral knee join with a single intra-articular injection of sodium monoiodoacetate (MIA). Rats were tested at 21-28 days following MIA injection. A behavioral measure of activity-induced pain was carried out. Measurements of the peak hind limb grip force were conducted by recording the maximum compressive force (CFmax), in grams of force, exerted on a hind limb strain gauge setup, in a commercially available grip force measurement system (Columbus Instruments, Columbus, Ohio).
During testing, each rat was gently restrained by grasping it around its rib cage and then allowed to grasp the wire mesh frame attached to the strain gauge. The experimenter then moved the animal in a rostral-to-caudal direction until the grip was broken. Each rat was sequentially tested twice at an approximately 2-3 minute interval to obtain a raw mean grip force (CFmax). This raw mean grip force data was in turn converted to a maximum hindlimb cumulative compressive force (CFmax), as the grams of force/kg of body weight, for each animal.
For evaluating the compound effects, the hind limb grip force testing in the MIA-treated rats was conducted generally 30-60 minutes after dosing with the test compound. A group of age-matched nave (not injected with MIA) animals was added as a comparator to the drug-dosed groups. The vehicle control response for each group of MIA-treated animals was defined as the 0% response (0% effect), whereas the nave control group was defined as the normal response and as 100% effect. The % effect=(Treatment CFmax−Vehicle CFmax)/Vehicle CFmax]×100). Higher % effect numbers indicate increased relief from the pain in the model, with 100% indicating a return to the level of response seen in normal (non-osteoarthritic) animals. All experiments evaluating drug effects in this model were conducted in a randomized blinded fashion.
Male Sprague Dawley rats (generally 250-300 g body weight at the time of testing) obtained from Charles River Laboratories (Wilmington, Mass.) were used for all experiments, unless indicated otherwise. […]

In another assay the target is T3, TrkC (Homo sapiens, UniProt Q16288).
T3 construct: purchased Invitrogen PV3617
T3 sequence (Q16288 32-839): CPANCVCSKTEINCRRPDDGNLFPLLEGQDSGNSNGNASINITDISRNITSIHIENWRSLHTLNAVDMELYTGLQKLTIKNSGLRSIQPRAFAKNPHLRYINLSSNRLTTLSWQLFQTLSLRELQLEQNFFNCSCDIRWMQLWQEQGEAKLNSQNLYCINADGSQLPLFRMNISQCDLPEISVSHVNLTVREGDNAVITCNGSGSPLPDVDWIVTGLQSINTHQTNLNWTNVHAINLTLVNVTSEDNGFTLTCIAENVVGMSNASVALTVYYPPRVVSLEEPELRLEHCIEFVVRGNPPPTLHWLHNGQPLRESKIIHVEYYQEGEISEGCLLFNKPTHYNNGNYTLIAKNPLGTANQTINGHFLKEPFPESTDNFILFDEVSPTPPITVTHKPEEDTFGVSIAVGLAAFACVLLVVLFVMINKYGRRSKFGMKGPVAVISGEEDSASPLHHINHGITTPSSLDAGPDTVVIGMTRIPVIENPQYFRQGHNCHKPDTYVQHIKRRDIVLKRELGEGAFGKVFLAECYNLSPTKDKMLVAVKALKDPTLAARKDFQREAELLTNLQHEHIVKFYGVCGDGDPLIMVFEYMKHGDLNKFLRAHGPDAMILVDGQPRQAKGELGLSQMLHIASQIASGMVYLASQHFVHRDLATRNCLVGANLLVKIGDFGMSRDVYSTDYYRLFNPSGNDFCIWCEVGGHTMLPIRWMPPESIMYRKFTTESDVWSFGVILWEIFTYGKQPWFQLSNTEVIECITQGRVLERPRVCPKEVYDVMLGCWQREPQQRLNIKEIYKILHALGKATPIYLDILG
In words: TrkC kinase inhibition, HTRF assay. In kind it is biochemical. The settings on record: LCK peptide substrate, assay ATP concentration targeted 5 μM. On the procedure:
as §1, §2, §3, §4, §5

T1 sequence (Q16620 32-822): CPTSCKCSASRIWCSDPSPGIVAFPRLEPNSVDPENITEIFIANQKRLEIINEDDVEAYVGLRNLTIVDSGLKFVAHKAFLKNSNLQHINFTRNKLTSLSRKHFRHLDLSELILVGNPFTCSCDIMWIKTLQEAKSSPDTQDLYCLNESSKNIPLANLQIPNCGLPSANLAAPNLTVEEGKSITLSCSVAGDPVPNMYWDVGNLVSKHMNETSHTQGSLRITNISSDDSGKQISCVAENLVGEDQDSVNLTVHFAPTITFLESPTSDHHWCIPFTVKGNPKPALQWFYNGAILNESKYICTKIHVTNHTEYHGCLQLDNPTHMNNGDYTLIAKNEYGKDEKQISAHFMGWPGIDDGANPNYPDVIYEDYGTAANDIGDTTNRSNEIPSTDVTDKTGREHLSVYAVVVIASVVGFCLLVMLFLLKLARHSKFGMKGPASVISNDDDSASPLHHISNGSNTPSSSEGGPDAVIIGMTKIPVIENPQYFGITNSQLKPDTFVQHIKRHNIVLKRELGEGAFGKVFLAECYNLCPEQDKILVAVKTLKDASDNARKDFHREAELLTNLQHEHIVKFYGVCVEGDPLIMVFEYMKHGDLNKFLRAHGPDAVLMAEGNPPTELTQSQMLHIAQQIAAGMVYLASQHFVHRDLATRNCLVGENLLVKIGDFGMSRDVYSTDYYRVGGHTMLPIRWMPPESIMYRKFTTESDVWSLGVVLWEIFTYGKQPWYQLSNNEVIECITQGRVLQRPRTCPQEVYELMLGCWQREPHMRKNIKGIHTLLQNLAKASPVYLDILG

Broadly, the IC50 is the concentration that inhibits the measured activity by half. A low value points to greater potency. As for `CNC(=O)c1ccc(-c2cc(OC3CCOCC3)c3c(N)n[nH]c3c2)cc1N1CCN(C2CCCCC2)CC1` [Example 29, 4-[3-amino-4-(tetrahydro-2H-pyran-4-yloxy)-1H-indazol-6-yl]-2-(4-cyclohexylpiperazin-1-yl)-N-methylbenzamide], the figures for the half-maximal inhibitory concentration (IC50) against TrkB, against TrkA and on TrkC were 46 nM, 97.9 nM and 55.9 nM, respectively. Further, in assay [1] (dose 100 mg/kg p.o.), the “% Effect” value worked out at 77%***.

On to `CNC(=O)c1ccc(-c2cc(OC3CCOCC3)c3c(N)n[nH]c3c2)cc1N1CCN(CC(F)(F)F)CC1` [Example 108, 4-[3-amino-4-(tetrahydro-2H-pyran-4-yloxy)-1H-indazol-6-yl]-N-methyl-2-[4-(2,2,2-trifluoroethyl)piperazin-1-yl]benzamide], for which the results for the half-inhibitory concentration (IC50) against TrkB, against TrkA and against TrkC were 41.3 nM, 30.5 nM and 52.2 nM, respectively. For the same compound, the “% Effect” value in assay [1] (dose 30 mg/kg p.o.) was determined as 73%***.

For the compound `CNC(=O)c1ccc(-c2cc(OC3CCOCC3)c3c(C)n[nH]c3c2)cc1N1CCN(C(=O)OC(C)C)CC1` [Example 125, isopropyl 4-{2-(methylcarbamoyl)-5-[3-methyl-4-(tetrahydro-2H-pyran-4-yloxy)-1H-indazol-6-yl]phenyl}piperazine-1-carboxylate], the 50% inhibitory concentration (IC50) against TrkB was found to be 3.2 nM; against TrkA it was 7.98 nM; against TrkC it was 5.11 nM. In addition, the “% Effect” value in assay [1] (dose 30 mg/kg p.o.) came out at 85%***.
